Series [1] has as its system alkaline phosphatase of Bacillus badius TE3597. Briefly: Substrate specificity of the alkaline phosphatase of Bacillus badius TE3597. The series is classed as biochemical. Conditions: enzyme of Bacillus badius TE3597; for Relative Activity: substrate specificity, p-nitrophenyl phosphate = 100.
Series [2] has as its system alkaline phosphatase of Bacillus badius TE3593. Briefly: Substrate specificity of the alkaline phosphatase of Bacillus badius TE3593. Format: biochemical. Conditions: enzyme of Bacillus badius TE3593; for Relative Activity: substrate specificity, p-nitrophenyl phosphate = 100.
Series [3] concerns alkaline phosphatase of Bacillus badius TE3592. As to the kind of experiment: Substrate specificity of the alkaline phosphatase of Bacillus badius TE3592. The series is classed as biochemical. As to conditions: enzyme of Bacillus badius TE3592; for Relative Activity: substrate specificity, p-nitrophenyl phosphate = 100.
For series [4] the following is noted: literature; temperature not given; cited from earlier work.
For series [5] the following is noted: literature; cited from earlier work.

The values below come from patent publication US5821061A, “Method and reagent for detecting a ligand in a sample” (Toyo Boseki Kabushiki Kaisha, priority 1995, dated 1998).

Take `O=P(O)(O)OCC(O)CO` (racemic) [DL-α-Glycerophosphate]: the “Substrate specificity (acts on)” value in series [1], in series [2] and in series [3] was “acts on” throughout. Moreover, the “Relative Activity” value in series [1] is 67.0; in series [2] it was 71.4; in series [3] it was 37.9.
As to `O=P(O)(O)OC1O[C@H](CO)[C@@H](O)[C@H](O)[C@H]1O` (stereo partly drawn) [Glucose-1-phosphate], the “Substrate specificity (acts on)” value in series [1] is recorded as “acts on”. Besides, the “Relative Activity” value turned out to be 25.0 in series [1], 1.44 in series [2] and 0 in series [3].
In the case of `O=P(O)(O)OC[C@H]1OC(O)[C@H](O)[C@@H](O)[C@@H]1O` (stereo partly drawn) [Glucose-6-phosphate], the “Substrate specificity (acts on)” value in series [1], in series [2] and in series [3] was “acts on” throughout. Moreover, the “Relative Activity” value in series [1] was determined as 34.5; in series [2], 44.3; in series [3], 14.8.
`NC(=O)c1ccc[n+]([C@@H]2O[C@H](COP(=O)([O-])OP(=O)(O)OC[C@H]3O[C@@H](n4cnc5c(N)ncnc54)[C@H](OP(=O)(O)O)[C@@H]3O)[C@@H](O)[C@H]2O)c1` [NADP]: the “Substrate specificity (acts on)” value in series [1], in series [2] and in series [3] was “acts on” each time. The figures for the “Relative Activity” value in series [1], in series [2] and in series [3] were 15.4, 90.5 and 15.4, respectively.
For the molecule `NCCOP(=O)(O)O` [Phosphoethanolamine], the “Substrate specificity (acts on)” value in series [1], in series [2] and in series [3] was “acts on” in each case. Moreover, the figures for the “Relative Activity” value in series [1], in series [2] and in series [3] were 67.0, 73.8 and 44.4, respectively.
Take `O=P(O)(O)OC(CO)CO` [β-Glycerophosphate]: the “Substrate specificity (acts on)” value in series [1], in series [2] and in series [3] was “acts on” throughout. Besides, the entries for the “Relative Activity” value in series [1], in series [2] and in series [3] were 67.5, 78.1 and 49.7, respectively.
Consider “alkaline phosphatase derived from Escherichia coli: alkaline phosphatase derived from Escherichia coli, used for dephosphorylation in molecular biology”, for which the Specific activity in series [4] is on record as 60 U/mg. For the same molecule, the “Stability (in words)” value in series [5] is given as “good stability”.
